Results from the supplement of paper PMC10307832.

Experiments:
Experiment in all cases: relative viability (nuclei count vs DMSO), 5 days (fraction); higher = more cells survive
[1] = tested on: NCI-H1666
Outline: (§1)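 The day after seeding in 1536-well plates, lung cancer cell lines were treated by pin tool with a single drug, or with a fixed anchor-drug dose together with five library-drug doses (not always all listed) in √10 steps. After 5 days, a combined fix-and-stain solution (final 0.05% Triton X-100, 1% formaldehyde, 1 ug/ml Hoechst) was added. Nuclei counted on 4× images gave relative viability as treated counts over vehicle counts, reported as the median of duplicate plates.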

[2] = tested on: NCI-H2347
Outline: as §1

[3] = tested on: NCI-H838
Outline: as §1

[4] = tested on: NCI-H1975
Outline: as §1

[5] = tested on: NCI-H358
Outline: as §1

[6] = tested on: HARA
Outline: as §1

[7] = tested on: LU99A
Outline: as §1

[8] = tested on: NCI-H1734
Outline: as §1

[9] = tested on: HCC-366
Outline: as §1

[10] = tested on: PC-3 [JPC-3]
Outline: as §1

[11] = tested on: NCI-H3122
Outline: as §1

[12] = tested on: NCI-H2405
Outline: as §1

[13] = tested on: LXF-289
Outline: as §1

[14] = tested on: NCI-H661
Outline: as §1

[15] = tested on: NCI-H650
Outline: as §1

[16] = tested on: NCI-H1792
Outline: as §1

[17] = tested on: HCC-15
Outline: as §1

[18] = tested on: NCI-H460
Outline: as §1

[19] = tested on: NCI-H1944
Outline: as §1

[20] = tested on: SW 1573
Outline: as §1

[21] = tested on: NCI-H1793
Outline: as §1

[22] = tested on: NCI-H2228
Outline: as §1

## Nc1cccc2c1CN(C1CCC(=O)NC1=O)C2=O (centres undefined) [Lenalidomide] + CC(=O)Nc1cccc(-n2c(=O)n(C3CC3)c(=O)c3c(Nc4ccc(I)cc4F)n(C)c(=O)c(C)c32)c1 [Trametinib] (partner 0.02 µM)
[1]; first compound 0.253 µM
  relative viability: 0.859
[1]; first compound 0.8 µM
  relative viability: 0.765
[1]; first compound 2.53 µM
  relative viability: 0.93
[1]; first compound 8 µM
  relative viability: 0.784
[2]; first compound 0.253 µM
  relative viability: 0.329
[2]; first compound 0.8 µM
  relative viability: 0.279
[2]; first compound 2.53 µM
  relative viability: 0.323
[2]; first compound 8 µM
  relative viability: 0.179
[3]; first compound 0.253 µM
  relative viability: 0.517
[3]; first compound 0.8 µM
  relative viability: 0.463
[3]; first compound 2.53 µM
  relative viability: 0.625
[3]; first compound 8 µM
  relative viability: 0.378
[4]; first compound 0.253 µM
  relative viability: 0.388
[4]; first compound 0.8 µM
  relative viability: 0.201
[4]; first compound 2.53 µM
  relative viability: 0.36
[4]; first compound 8 µM
  relative viability: 0.234
[5]; first compound 0.8 µM
  relative viability: 0.132
[5]; first compound 2.53 µM
  relative viability: 0.133
[5]; first compound 8 µM
  relative viability: 0.19
[6]; first compound 0.253 µM
  relative viability: 0.715
[6]; first compound 2.53 µM
  relative viability: 0.542
[6]; first compound 8 µM
  relative viability: 1.04
[7]; first compound 0.253 µM
  relative viability: 0.509
[7]; first compound 0.8 µM
  relative viability: 0.537
[7]; first compound 2.53 µM
  relative viability: 0.644
[7]; first compound 8 µM
  relative viability: 0.425
[8]; first compound 0.253 µM
  relative viability: 0.69
[8]; first compound 0.8 µM
  relative viability: 0.606
[8]; first compound 2.53 µM
  relative viability: 0.702
[8]; first compound 8 µM
  relative viability: 0.605
[9]; first compound 0.253 µM
  relative viability: 0.33
[9]; first compound 0.8 µM
  relative viability: 0.353
[9]; first compound 2.53 µM
  relative viability: 0.386
[9]; first compound 8 µM
  relative viability: 0.264
[10]; first compound 0.253 µM
  relative viability: 0.705
[10]; first compound 0.8 µM
  relative viability: 0.681
[10]; first compound 2.53 µM
  relative viability: 0.731
[10]; first compound 8 µM
  relative viability: 0.743
[11]; first compound 0.253 µM
  relative viability: 0.234
[11]; first compound 0.8 µM
  relative viability: 0.246
[11]; first compound 2.53 µM
  relative viability: 0.253
[11]; first compound 8 µM
  relative viability: 0.205
[12]; first compound 0.253 µM
  relative viability: 0.648
[12]; first compound 0.8 µM
  relative viability: 0.657
[12]; first compound 2.53 µM
  relative viability: 0.654
[12]; first compound 8 µM
  relative viability: 0.546
[13]; first compound 0.253 µM
  relative viability: 0.661
[13]; first compound 0.8 µM
  relative viability: 0.604
[13]; first compound 2.53 µM
  relative viability: 0.671
[13]; first compound 8 µM
  relative viability: 0.691
[14]; first compound 0.253 µM
  relative viability: 0.529
[14]; first compound 0.8 µM
  relative viability: 0.593
[14]; first compound 2.53 µM
  relative viability: 0.591
[14]; first compound 8 µM
  relative viability: 0.533
[15]; first compound 0.253 µM
  relative viability: 0.983
[15]; first compound 0.8 µM
  relative viability: 1
[15]; first compound 2.53 µM
  relative viability: 0.963
[15]; first compound 8 µM
  relative viability: 0.891
[16]; first compound 0.253 µM
  relative viability: 0.445
[16]; first compound 0.8 µM
  relative viability: 0.369
[16]; first compound 2.53 µM
  relative viability: 0.59
[16]; first compound 8 µM
  relative viability: 0.366
[17]; first compound 0.253 µM
  relative viability: 0.412
[17]; first compound 0.8 µM
  relative viability: 0.427
[17]; first compound 2.53 µM
  relative viability: 0.377
[17]; first compound 8 µM
  relative viability: 0.334
[18]; first compound 0.253 µM
  relative viability: 0.0785
[18]; first compound 0.8 µM
  relative viability: 0.13
[18]; first compound 2.53 µM
  relative viability: 0.127
[18]; first compound 8 µM
  relative viability: 0.19
[19]; first compound 0.253 µM
  relative viability: 0.385
[19]; first compound 2.53 µM
  relative viability: 0.427
[19]; first compound 8 µM
  relative viability: 0.395
[20]; first compound 0.253 µM
  relative viability: 0.583
[20]; first compound 0.8 µM
  relative viability: 0.67
[20]; first compound 2.53 µM
  relative viability: 0.583
[20]; first compound 8 µM
  relative viability: 0.596
[21]; first compound 0.253 µM
  relative viability: 0.458
[21]; first compound 2.53 µM
  relative viability: 0.474
[21]; first compound 8 µM
  relative viability: 0.451
[22]; first compound 0.253 µM
  relative viability: 0.629
[22]; first compound 0.8 µM
  relative viability: 0.315
[22]; first compound 2.53 µM
  relative viability: 0.695
[22]; first compound 8 µM
  relative viability: 0.363
